# Data: patent US20150190404A1, “TREATING SEIZURES USING ICE INHIBITORS” (Vertex Pharmaceuticals Incorporated, priority 2004, published 2015)
# Values joined by “and” are separate entries in the source; they are usually repeats but may differ in a detail not shown here. Equal entries are not always repeated. “Also recorded” adds a separate entry of the source.
# How the values were obtained:
# [1] = test system: kainic acid-induced seizures; experiment: Kainic acid-induced EEG seizures, compound given intracerebroventricularly (Example 1); assay type: in vivo, male adult Sprague-Dawley rats; conditions: individual rats, 25 μg/4 μl icv
# Description: An experimental model of seizures in male adult Sprague-Dawley rats was induced by unilateral microinjection of kainic acid (40 ng in 0.5 μl) in the dorsal hippocampus of freely-moving rats using chronically-implanted cannulae and electrodes. Briefly, animals were deeply anesthetized using Equithesin (1% […] and 4% chloral hydrate; 3 ml/kg, i.p.). Bipolar nichrome wire insulated electrodes (60 μm) were implanted bilaterally into the dentate gyrus of the dorsal hippocampus (septal pole), and a guide cannula (22 gauge) was unilaterally positioned on top of the dura and glued to one of the depth electrodes for the intrahippocampal injection of kainic acid. The coordinates from bregma for implantation of the hippocampal electrodes were (in mm: nose bar -2.5, AP -3.5, L ±2.4 and 3 below dura mater). An additional guide cannula was unilaterally positioned on top of the dura mater for intracerebroventricular injection of compounds (in mm, nose bar -2.5; AP -1; L +1.5). A ground lead was positioned over the nasal sinus and two screw electrodes were placed bilaterally over the parietal cortex. The electrodes were connected to a multipin socket (March Electronics, NY) and, together with the injection cannula, were secured to the skull by acrylic dental cement.
# [2] = test system: kainic acid-induced seizures; experiment: Kainic acid-induced EEG seizures, compound 1 given intraperitoneally (Example 2); assay type: in vivo, rats
# Description: An experimental model of seizures in rats was induced by unilateral microinjection of kainic acid (40 ng in 0.5 μL) in the dorsal hippocampus of freely-moving rats using chronically-implanted cannulae. […] EEG seizures were recorded using chronically-implanted hippocampal electrodes. […] See, Example 4, where a higher dose of compound 2 produced statistically significant effects.
# IL-1β = experiment: Western blot of IL-1β in hippocampal homogenates after kainate seizures; assay type: in vivo, rats; conditions: 25 μg/4 μL icv 45 and 10 min before kainic acid 40 ng, 90 min after seizures
# Source text: See Example 1 and Example 6.
# seizures = experiment: Rodent seizure model, general statements on anti-convulsant activity; conditions: in vivo
# Source text: The examples provided herein involve an rodent seizure model that is recognized as a good model of human epilepsy and convulsions disorders.
# rheumatoid arthritis = conditions: Pavelka et al. 2002, 285 patient PHII trial; cited from earlier work
# [3] = test system: kainic acid-induced seizures; experiment: Effect of ibuprofen on kainic acid-induced EEG seizures (Example 5); assay type: in vivo, Rats; conditions: for Status Epilepticus (time in status epilepticus) / Onset / No. of Seizures / Time in Seizures: 50 mg/kg
# Description: EEG seizures were induced in adult male Sprague-Dawley rats by intrahippocampal injection of 40 ng kainic acid (KA) using a chronically-implanted cannula. EEG seizures were recorded using chronically-implanted hippocampal electrodes. Ictal and interictal epileptic activity was quantified quantified by EEG analysis based on the following parameters: 1) the time to onset of the first ictal episode, 2) the number of ictal episodes during the 3 hours of recording, and 3) the time spent in ictal activity reckoned by adding together the duration of each ictal event. Compound 2 or its vehicle were injected intraperitoneally for 3 consecutive days (50-200 mg/kg). The 4th day, rats received compound 2, 45 and 10 min before the intrahippocampal injection of 40 ng in 0.5 μl kainic acid.
# The effect of ibuprofen on seizures was also examined using the methods described in Example 4. Rats received ibuprofen (50 mg/kg, i.p.) 60 min. before unilateral intrahippocampal injection of […] in 0.5 μl kainic acid. Controls (vehicle) received saline *p<0.05 vs. vehicle by Student's t-test. Seizures were analyzed and quantified by EEG. Status epilepticus represents continuous seizure activity lasting more than 30 min. consecutively.
# [4] = individual rats, 30 mg/kg intraperitoneally, 45 and 10 min before 40 ng kainic acid, 30 mg/kg
# [5] = individual rats, i.p. 60 min. before kainic acid
smiles,measurement,setting,value
CCO[C@@H]1OC(=O)C[C@@H]1NC(=O)[C@@H]1CCCN2C(=O)CC[C@H](NC(=O)c3nccc4ccccc34)C(=O)N12 [Compound 1],Time in ictal activity,[1]; 45 and 10 min before 40 ng kainic acid,36.0 min (2×) and 30.0 min and 42.0 min (2×) and 34.0 min and 41.0 min
same,ONSET (time to onset of the first ictal episode),[1]; 45 and 10 min before 40 ng kainic acid in left hippocampus,15.0 min and 20.0 min and 14.0 min (2×) and 18.0 min and 13.6 min and 9.0 min and 12.0 min
same,No. of ictal episodes,"[1]; 45 and 10 min before 40 ng kainic acid, 3 hours of recording",28 and 29 and 30 (3×) and 37 and 31 and 33
same,reduction of the total time spent in ictal activity,"[2]; 30 mg/kg intraperitoneally, vs vehicle, did not reach statistical significance",−30%
same,No. of ictal episodes,"[2]; Mean ± SE, 30 mg/kg intraperitoneally, vehicle 20.8 ± 2.5",20.5 ± 2.3
same,Time in ictal activity,"[2]; Mean ± SE, 30 mg/kg intraperitoneally, vehicle 36.6 ± 6.9",25.6 ± 2.8 min
same,ONSET (time to onset of the first ictal episode),[2]; [4],10.5 min and 12 min and 14 min and 9 min (2×) and 23 min and 13 min and 11 min
same,Time in ictal activity,[2]; [4],9 min and 32 min and 27 min and 20 min and 34 min and 25 min and 30 min and 28 min
same,No. of ictal episodes,"[2]; individual rats, 30 mg/kg intraperitoneally, 45 and 10 min before 40 ng kainic acid, 3 hours of recording, 30 mg/kg",8 and 23 (2×) and 29 and 17 and 25 (2×) and 16
same,seizure inhibition / anti-convulsant activity,[2]; intraperitoneal (peripheral) route,inhibit seizures; also recorded: have anti-convulsant activity when administered peripherally
same,mature active 17 kD IL-1β in hippocampus,IL-1β,blocked the seizure-induced production; also recorded: reduced the formation mature active 17 kD IL-1β
same,anti-convulsant activity in the rodent seizure model,seizures,as effective as high doses of either phenytoin or carbamazepine
same,anti-inflammatory activity in rheumatoid arthritis patients,rheumatoid arthritis,anti-inflammatory activity
CC(C)Cc1ccc(C(C)C(=O)O)cc1 (stereo not shown) [Ibuprofen],Status Epilepticus (time in status epilepticus),"[3]; Mean ± SE of (5) rats, i.p., vehicle —",74.4 ± 2.6
same,Status Epilepticus (time in status epilepticus),"[3]; Mean ± SE of (5) rats, i.p., vehicle —, listed as ibuprofen",increased the time in status epilepticus
same,Onset,"[3]; Mean ± SE, i.p., vehicle 13.2 ± 2.1",13.0 ± 1.7 min
same,No. of Seizures,"[3]; Mean ± SE, i.p., vehicle 16.6 ± 1.0",11.7 ± 1.0
same,Time in Seizures,"[3]; Mean ± SE, i.p., vehicle 21.1 ± 1.1",10.8 ± 0.6 min
same,Onset,"[3]; individual rats, i.p. 60 min. before intrahippocampal 40 μg in 0.5 μl kainic acid",14.4 min and 7.9 min and 11.0 min and 12.3 min and 13.3 min and 21.4 min and 10.0 min
same,No. of Seizures,[3]; [5],13 (2×) and 10 (2×) and 12 and 16 and 8
same,Time in Seizures,[3]; [5],13.0 min and 8.4 min and 11.0 min and 12.5 min and 11.2 min and 9.8 min and 9.4 min
same,Status Epilepticus (time in status epilepticus),"[3]; individual rats, i.p., continuous seizure activity lasting more than 30 min., all vehicle rats —",75 and 66.6 and 80 (2×) and 70
same,seizure activity compared to vehicle,[3]; intraperitoneal route,increased the seizure activity compared to vehicle
NC(=O)N1c2ccccc2C=Cc2ccccc21 [carbamazepine],anti-convulsant activity in the rodent seizure model,seizures,exhibit anti-convulsant activity
O=C1NC(=O)C(c2ccccc2)(c2ccccc2)N1 [phenytoin],anti-convulsant activity in the rodent seizure model,seizures,exhibit anti-convulsant activity
